Test [1] addresses T1, prostate-specific antigen (Homo sapiens, UniProt P07288). The test is described as follows: HPLC study of peptide specificity for prostate-specific antigen. It counts as biochemical. The note with it: in the presence of prostate-specific antigen enzyme; fluorescence detection 480/525 nm. The text has this:
The Study of Peptide Specificity for Prostate-Specific Antigen: • The high performance liquid chromatography is used for application in study of peptide separation, peptide purity analysis and specific enzyme-cutting specificity for a peptide substrate. […] The goal of the study of the present invention is to develop prostate peptide substrates and enzymes by in-vitro experiments.
The chromatographic diagrams of specificity analysis of the prostate peptide substrates and prostate-specific antigen are shown in FIGS. 3 and 4. The conditions of the HPLC are as follows: a reverse C18 chromatography column, mobile phase is methyl alcohol: 1% triethylamine=60:40(v/v), flow rate is 0.5 ml/min. […] There are two peaks in the spectrums if HPLC runs in the presence of the prostate-specific antigen with the retention times being 2.7 and 3.2 min as shown in FIG. 3.

The target in test [2] is T1, prostate-specific antigen. Put plainly: Quenching and non-quenching study: fluorescence intensity over time after reaction with prostate-specific antigen. The test is classed as biochemical. The note with it: 35 minutes. An excerpt:
FIG. 5. is a fluorescence absorption verse time diagram showing fluorescence intensity of a control peptide probe (×) for a prostate peptide substrate probe Cy-prostate-PGC (▪), control peptide probe (Δ) and a prostate peptide probe in the presence of a prostate-specific antigen (♦) according to the present invention;
At different time, a prostate peptide substrate and prostate control peptide are reacted with an enzyme of prostate-specific antigen to record its fluorescence spectrum and the results are shown in FIG. 5. […] When the reaction time for the reaction between prostate peptide substrate and the prostate-specific antigen reaches 35 minutes and the signal intensity becomes 5 times as that of the original fluorescence intensity.

“Also recorded” adds a separate entry of the source. Square brackets hold non-standard residues; d marks the D form. Ends that are not written are not given here. * marks the point of attachment. FITC = O=C1OC2(c3ccc(O)cc3Oc3cc(O)ccc32)c2ccc(NC(=S)*)cc21; Hyp = O=C(O)[C@@H]1C[C@@H](O)CN1; Chg = N[C@H](C(=O)O)C1CCCCC1

T1 sequence (P07288 25-261): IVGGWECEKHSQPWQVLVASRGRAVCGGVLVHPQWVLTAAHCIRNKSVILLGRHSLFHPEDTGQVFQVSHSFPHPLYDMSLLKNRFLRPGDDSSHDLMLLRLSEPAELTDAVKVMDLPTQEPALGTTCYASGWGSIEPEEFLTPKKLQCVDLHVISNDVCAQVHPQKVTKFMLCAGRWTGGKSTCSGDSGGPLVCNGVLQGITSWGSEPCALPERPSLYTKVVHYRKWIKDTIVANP

Consider “G[Hyp]AS[Chg]QSLMK(FITC)C-NH2 [prostate peptide substrate]”, for which the “cutting of the peptide by prostate-specific antigen (HPLC)” value in test [1] is “can cut Gln-Ser residue; also recorded: one major cut”. Also, in test [2], the “fluorescence signal intensity relative to the original fluorescence intensity” value is listed as 5 times.
